# According to PubChem BioAssay AID652241 (Broad Institute, 2013):
# Inconclusive results are not listed. The source made the active and inactive calls.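 Rule for the calls: active = fitted curve reaches activity 50 in the expected rising direction at or below the top valid tested dose; inconclusive = no clear call, values can overlap the other calls; inactive = activity in the wrong direction, and the rest.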
# Target: Virion infectivity factor (Human immunodeficiency virus type 1 group M subtype B (isolate BH10)) + Virion infectivity factor (Human immunodeficiency virus type 1 group M subtype B (isolate BRU/LAI)) + Virion infectivity factor (Human immunodeficiency virus type 1 group M subtype B (isolate PCV12)) + Virion infectivity factor (Human immunodeficiency virus type 1 group M subtype B (isolate HXB2)) (UniProt P69720+P69721+P69722+P69723)
# Sequence (P69720 whole entry, looked up): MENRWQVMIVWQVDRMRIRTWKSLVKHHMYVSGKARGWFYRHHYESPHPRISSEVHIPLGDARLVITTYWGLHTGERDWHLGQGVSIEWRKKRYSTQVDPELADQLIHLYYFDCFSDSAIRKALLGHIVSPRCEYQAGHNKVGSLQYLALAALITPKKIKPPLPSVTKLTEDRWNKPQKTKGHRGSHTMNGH
# Sequence (P69721 whole entry, looked up): as the sequence (P69720 whole entry, looked up) above
# Sequence (P69722 whole entry, looked up): as the sequence (P69720 whole entry, looked up) above
# Sequence (P69723 whole entry, looked up): as the sequence (P69720 whole entry, looked up) above
# Assay: Vif multimerization inhibitor potency, dose response, imaging, HEK293T, cherry-picks (AID 652241);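 note: imaged cell signal that rises when Vif self-association is disrupted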
# Conditions: 24 h
Structure (SMILES),AC50,"activity, higher = inhibition (at 19.5 µM (top of the series))",other results
N#Cc1c(C(F)(F)F)cc(-c2ccco2)nc1SCc1ccncc1,15.8 µM,,
CCC(=O)Nc1ccc(-c2nnc(SCc3ccc(C(=O)Nc4nccs4)cc3)n2CC)cc1,,inactive,
CCOC(=O)c1c(C)[nH]c(-c2csc(N)n2)c1C,,inactive,
COc1cccc(N2CCN(S(=O)(=O)c3cc4c(cc3C)N(C)CCO4)CC2)c1,,inactive,
O=S(=O)(Nc1nc2ccccc2nc1NCc1ccco1)c1ccc(Cl)cc1,,inactive,
Cc1nn(Cc2c(Cl)cccc2Cl)c(C)c1NC(=O)c1cnn2c(C(F)F)cc(-c3ccccc3)nc12,16.5 µM,,
COc1cccc(N2CCN(C(=O)c3ccc(CS(=O)c4ccc(C)cc4)o3)CC2)c1 (stereo not given),12.9 µM,,
Cc1cc(C(=O)Nc2c(F)c(F)c(F)c(F)c2F)n(-c2ccccc2)n1,,inactive,
O=C(CSc1ncccn1)NC(=O)Nc1ccc2c(c1)OCCO2,,inactive,
Cc1cc(NC(=O)NC2(C(F)(F)F)Oc3ccc(Cl)cc3O2)no1 (stereo not given),7.12 µM,,
O=C(COc1ccc(-n2cnnn2)cc1)Nc1cc(Cl)cc(Cl)c1,12.1 µM,,
COc1ccc(OC)c(NC(=O)c2nc(-c3ccccc3)oc2C)c1,,inactive,
COc1ccc(-n2nc(C(=O)NCC(=O)Nc3cccc(Cl)c3)c3ccccc3c2=O)cc1OC,8.05 µM,,
CCCSc1ccc2nc(NC(=O)OC)[nH]c2c1,15.4 µM,,
O=C(O)/C=C/C(=O)Nc1cccc(C(F)(F)F)c1,,inactive,
O=C(Cc1ccccc1)OCC(=O)c1ccc(F)cc1,,inactive,
COc1ccc(-c2coc3c(C(=O)Nc4cccc(C(C)=O)c4)cccc23)c(C)c1,,inactive,
COc1ccccc1C1C2=C(COC2=O)Nc2cc3c(cc21)OCO3 (stereo not given),1.99 µM,,

Structure (SMILES),AC50,"activity, higher = inhibition (at 19.5 µM (top of the series))",other results
OC(CNCc1ccccc1Cl)COc1ccc(F)cc1 (stereo not given),,inactive,
CCN(CC)C(=O)c1cccc(NC(=O)C2=COCCO2)c1,,inactive,
NC(=O)c1sc2nc(-c3ccccc3)ccc2c1N,,inactive,
COc1ccc(-c2cc(C(=O)Nc3cnn(Cc4ccccc4C)c3)no2)cc1OC,16.3 µM,,
CCN(CC)C(=O)c1ccc(C(=O)c2c(C)cc(C)cc2C)cc1,,inactive,
O=C(CCCCn1ccc(=O)[nH]c1=O)Nc1ccc(O)c(C(=O)O)c1,,inactive,
NC(c1csc(Nc2ccc(C(=O)c3ccccc3)cc2)n1)C1CCCCC1 (stereo not given),,,"activity, higher = inhibition (at 6.8 µM (top of the series)): inactive"
Cc1cccc2cc(CN(CC3CCCO3)C(=O)NC3CCCCC3)c(=O)[nH]c12 (stereo not given),,inactive,
CNC(=O)COc1ccccc1C(=O)Nc1ccc2c(c1)oc1ccccc12,,inactive,
CCOc1ccc(CC(=O)Nc2sc(Cc3ccccc3)c(C)c2C(N)=O)cc1OCC,,inactive,
C/C=C/c1ccc(OCCNCc2ccccc2)c(OC)c1,,inactive,
CCOC(=O)c1cc(-c2ccccc2)sc1NC(=O)COC(=O)c1cccc(S(N)(=O)=O)c1,16.1 µM,,
COc1ccc(NC(=O)Cn2ncc(Cl)c(Cl)c2=O)cc1S(=O)(=O)N1CCOCC1,> 19.5 µM (inactive),,
CCOc1ccc(N2C(=O)/C(=C/c3cccs3)N(CC(=O)OC)C2=S)cc1,> 19.5 µM (inactive),,
COc1ccc(C(=O)Nc2cc(OC)c(NC(=O)Nc3ccccc3)cc2OC)cc1,,inactive,
N#Cc1c2ccc(OCC(N)=O)cc2n2ccccc12,,inactive,
O=C(Nc1cccc(-c2cc3ccccc3oc2=O)c1)c1ccc(Br)o1,,inactive,
